Source: ChEMBL document CHEMBL1156829 (Proc Natl Acad Sci U S A, 2008)
pEC50: −log10 of the molar value.

Legend:
[1] = test system: Plasmodium falciparum; assay: NOVARTIS: Inhibition of Plasmodium falciparum W2 (drug-resistant) proliferation in erythrocyte-based infection assay; assay type: functional, organism-based; settings: read-out: EC50
[2] = NOVARTIS: Cytotoxicity against human hepatocellular carcinoma cell line (Huh7); assay type: toxicity, cell-based, Huh-7; settings: Huh7 cells (hepatocellular carcinoma cell line)
[3] = test system: Plasmodium falciparum; assay: NOVARTIS: Inhibition of Plasmodium falciparum 3D7 (drug-susceptible) proliferation in erythrocyte-based infection assay; assay type: functional, organism-based

Row | Structure (SMILES) | pEC50 ([1]; Plasmodium falciparum, W2) | CC50 [2] [nM] | pEC50 ([3]; Plasmodium falciparum, 3D7) | pEC50 [1] | pEC50 [3]
1 | Cc1sc2ncn(CC(=O)N(C)Cc3ccccc3)c(=O)c2c1S(=O)(=O)N1CCOCC1 | < 6.11 | > 10000 | < 5.90 | – | –
2 | CC(=O)Nc1cccc(-c2cncc(-c3ccc(C(=O)O)cc3)n2)c1 | 5.65 | > 100000 | 5.94 | – | –
3 | Brc1ccc(/C=C/c2cc[n+](Cc3ccccc3)cc2)cc1 | 7.18 | > 10000 | 6.95 | – | –
4 | Cc1ccc(C2CC(C(F)(F)F)n3ncc(C(=O)Nc4ccc(OC(F)(F)F)cc4)c3N2)cc1 (stereo unspecified) | 6.53 | > 100000 | 6.55 | – | –
5 | c1ccc(CSc2nnc3c(n2)[nH]c2ccccc23)cc1 | 5.88 | > 10000 | 5.89 | < 6.13 | < 5.98
6 | O=C(Nc1ccc(C2=NCCN2)cc1)c1ccc(NC(=O)c2ccc(C3=NCCN3)cc2)cc1 | 7.87 | > 10000 | 7.09 | – | –
7 | Cc1cc(C)c(CSc2ncnc3[nH]cnc23)c(C)c1 | < 6.56 | > 10000 | < 5.82 | – | –
8 | Cc1ccc(C)c(Nc2nc(NCC3CCCO3)c3ccccc3n2)c1 (stereo unspecified) | 5.81 | 18600 | 5.81 | – | –
9 | COc1ccc(CNCc2cc3c(-c4ccc(C)cc4)nn(-c4ccccc4)c3[nH]c2=O)cc1 | 6.07 | > 100000 | 6.88 | – | –
10 | Cc1cccc(NC(=O)c2ccc(NCCCC3CCCCCC3)c([N+](=O)[O-])c2)c1 | 6.19 | 18800 | 6.36 | – | –
11 | COC(=O)C1=C(C)NC2=C(C(=O)CC(c3ccc(OC)c(OC)c3)C2)C1c1ccc(Cl)cc1Cl (stereo unspecified) | 7.85 | > 100000 | 6.77 | – | –
12 | COc1cc2nc(NCCCOC(C)C)n3nc(-c4ccccc4)nc3c2cc1OC | 5.92 | > 100000 | 6.10 | – | –
13 | O=C(CSc1oc(-c2ccc(Cl)cc2)nc1[P+](c1ccccc1)(c1ccccc1)c1ccccc1)c1ccccc1 | < 5.93 | > 10000 | 6.07 | – | –
14 | CCOC(=O)C1=C(C)NC(=Cc2cc(C)n(-c3ccc(C)cc3)c2C)C1=O | 6.77 | > 100000 | 6.92 | – | –
15 | COc1ccccc1NC(=O)C(=O)NCCc1ccc(OC)c(OC)c1 | < 4.97 | > 100000 | < 4.99 | – | –
16 | O=C1C(Nc2ccc(F)cc2)=C(N2CCCCC2)C(=O)c2ccccc21 | 6.50 | 36800 | 6.47 | – | –
17 | CC(=O)N1c2ccc([N+](=O)[O-])cc2C(C)(c2ccccc2)CC1(C)C (stereo unspecified) | 7.21 | > 100000 | 5.96 | – | –
18 | COc1ccc(NC(=O)c2cc3cc(C4(O)CCN(CC(C)c5ccccc5)CC4)ccc3o2)cc1 (stereo unspecified) | 5.70 | > 100000 | 5.62 | – | –
19 | c1ccc(CNc2nc(Nc3ccccc3)nc3ccccc23)cc1 | 7.03 | 13500 | 6.80 | – | –
20 | OCC1CCCCN1Cc1cc(-c2ccccc2)ccc1O (stereo unspecified) | > 7.63 | > 10000 | 5.99 | – | –
21 | Oc1ccc(-c2ccccc2)cc1CNCCCN1CCOCC1 | 7.55 | > 10000 | 6.15 | – | –
22 | Fc1ccc(C(CCNc2ncnc3c2[nH]c2ccccc23)c2ccco2)cc1 (stereo unspecified) | 6.38 | 20200 | 6.67 | – | –
23 | CCOc1ccc(-c2nc(NC(=O)CS(=O)(=O)c3ccccc3)sc2C)cc1 | 6.13 | > 100000 | 6.28 | – | –
24 | Cc1ccn2c(NC(C)(C)CC(C)(C)C)c(-c3ccccc3OC(=O)c3ccc4ccccc4c3)nc2c1 | 6.82 | > 10000 | 6.14 | – | –
25 | CC(C)CC[n+]1ccccc1C=Cc1ccc(N(C)C)cc1 | – | > 30000 | – | 6.82 | 7.08
26 | Cc1ccc(-c2c[n+](Cc3cccc(C)c3)c3n2CCC3)cc1 | 6.31 | 20600 | 6.25 | – | –
27 | Cc1cc2c(cc1S(=O)(=O)N1CCCCC1C)OCC(=O)N2 (stereo unspecified) | 6.30 | > 100000 | < 4.90 | – | –
28 | CCOC(=O)c1cnc2ccc(C(C)C)cc2c1O | 5.94 | > 100000 | 5.94 | – | –
